How the values were obtained:
[1] = system: PSA and TMPRSS2 in parental LNCaP cells; assay: Antagonism of R1881 induction of PSA and TMPRSS2 in parental LNCaP cells; format: cell-based, human
[2] = target: T1, mutant AR protein (W741C) (Homo sapiens, UniProt P10275, W742C); format: cell-based
T1 sequence (P10275 1-920 W742C): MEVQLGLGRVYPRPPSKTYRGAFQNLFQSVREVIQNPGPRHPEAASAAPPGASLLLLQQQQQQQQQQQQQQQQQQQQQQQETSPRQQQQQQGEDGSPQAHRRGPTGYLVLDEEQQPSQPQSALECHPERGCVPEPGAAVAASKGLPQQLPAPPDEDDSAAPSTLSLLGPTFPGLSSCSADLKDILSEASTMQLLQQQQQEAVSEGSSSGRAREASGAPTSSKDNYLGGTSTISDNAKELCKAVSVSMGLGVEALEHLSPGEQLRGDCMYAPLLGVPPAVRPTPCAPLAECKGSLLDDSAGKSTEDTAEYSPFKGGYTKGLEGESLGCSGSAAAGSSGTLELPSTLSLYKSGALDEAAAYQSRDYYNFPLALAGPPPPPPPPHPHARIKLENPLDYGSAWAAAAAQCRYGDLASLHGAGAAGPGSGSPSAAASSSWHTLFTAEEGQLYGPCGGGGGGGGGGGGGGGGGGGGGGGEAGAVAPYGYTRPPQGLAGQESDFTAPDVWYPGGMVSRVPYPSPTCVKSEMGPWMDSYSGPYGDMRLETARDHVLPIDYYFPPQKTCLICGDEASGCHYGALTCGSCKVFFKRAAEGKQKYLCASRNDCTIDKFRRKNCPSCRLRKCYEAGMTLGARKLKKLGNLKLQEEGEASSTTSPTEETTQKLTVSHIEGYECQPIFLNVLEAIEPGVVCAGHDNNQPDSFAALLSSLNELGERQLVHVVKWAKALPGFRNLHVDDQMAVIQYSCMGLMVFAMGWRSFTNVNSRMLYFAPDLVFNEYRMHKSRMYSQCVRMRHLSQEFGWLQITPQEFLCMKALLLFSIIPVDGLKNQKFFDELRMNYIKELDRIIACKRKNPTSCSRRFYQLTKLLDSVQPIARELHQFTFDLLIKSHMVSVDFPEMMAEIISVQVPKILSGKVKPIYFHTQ

progesterone receptor = target: T2, progesterone receptor (Homo sapiens, UniProt P06401); assay: in vitro fluorescence polarization binding assay
T2 sequence (P06401 1-933): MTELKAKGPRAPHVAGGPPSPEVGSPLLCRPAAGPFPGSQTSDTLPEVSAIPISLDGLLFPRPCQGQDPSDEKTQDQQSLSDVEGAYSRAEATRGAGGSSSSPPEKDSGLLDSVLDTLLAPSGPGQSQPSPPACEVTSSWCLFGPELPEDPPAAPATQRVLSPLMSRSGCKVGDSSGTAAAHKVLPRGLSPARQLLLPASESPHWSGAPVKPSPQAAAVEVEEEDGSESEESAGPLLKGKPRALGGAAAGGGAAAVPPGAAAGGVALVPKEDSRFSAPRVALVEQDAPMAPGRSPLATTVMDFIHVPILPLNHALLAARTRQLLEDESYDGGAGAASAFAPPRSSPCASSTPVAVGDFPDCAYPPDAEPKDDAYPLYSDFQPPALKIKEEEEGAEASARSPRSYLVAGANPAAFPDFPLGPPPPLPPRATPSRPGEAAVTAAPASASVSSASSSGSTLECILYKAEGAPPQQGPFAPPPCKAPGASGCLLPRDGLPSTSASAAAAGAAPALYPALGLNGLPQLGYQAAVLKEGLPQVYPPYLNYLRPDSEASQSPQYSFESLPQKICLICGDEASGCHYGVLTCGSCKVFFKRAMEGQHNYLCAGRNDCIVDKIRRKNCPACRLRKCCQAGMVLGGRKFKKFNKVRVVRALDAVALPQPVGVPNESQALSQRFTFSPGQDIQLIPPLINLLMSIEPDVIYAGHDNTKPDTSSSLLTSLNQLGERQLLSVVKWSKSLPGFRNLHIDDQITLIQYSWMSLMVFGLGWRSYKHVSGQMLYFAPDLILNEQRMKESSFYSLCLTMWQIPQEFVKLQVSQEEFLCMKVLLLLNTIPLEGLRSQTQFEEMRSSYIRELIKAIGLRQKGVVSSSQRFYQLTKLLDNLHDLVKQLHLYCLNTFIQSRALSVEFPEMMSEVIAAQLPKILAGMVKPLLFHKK

LNCaP/AR tumors = assay: LNCaP/AR xenograft model of CRPC in castrate male mice

Structure (SMILES): CNC(=O)c1ccc(N2C(=S)N(c3ccc(C#N)c(C(F)(F)F)c3)C(=O)C23CCC3)cc1F [RD162]
- Antagonism of induction of PSA and TMPRSS2 by R1881 [1]: antagonized induction
- Transcriptional activity of mutant AR (W741C) [2]: inhibited the transcriptional activity
- binding to progesterone receptor (progesterone receptor): little to no binding
- antitumor activity (LNCaP/AR tumors; 0.1 mg/kg): some slowing of tumor growth
- antitumor activity (LNCaP/AR tumors; 1 mg/kg): a few tumor regressions
- Tumors no longer palpable (of 12) (LNCaP/AR tumors; 10 mg/kg oral daily, 28 days): three tumors
- Tumors regressed (12 tumors per group) (LNCaP/AR tumors; 10 mg/kg oral daily, 28 days): all twelve tumors
- Tumors regressed by greater than 50 percent (of 12) (LNCaP/AR tumors; 10 mg/kg oral daily, 28 days): nine tumors
- Median time to tumor progression (LNCaP/AR tumors; continual 10 mg/kg oral daily treatment): 186 days
